Data published in ChEMBL document CHEMBL1926681, “Novel inhibitors of epidermal growth factor receptor: (4-(Arylamino)-7H-pyrrolo[2,3-d]pyrimidin-6-yl)(1H-indol-2-yl)methanones and (1H-indol-2-yl)(4-(phenylamino)thieno[2,3-d]pyrimidin-6-yl)methanones” (Bioorg Med Chem, 2012).
One block for each molecule: values may come before it. Activity calls are given as the source filed them. The calls are words filed in the database; no cut-off is given here.

Legend:
[1] = Cytotoxicity against human PC3M cells after 4 days by propidium iodide staining-based fluorometric analysis; assay type: functional, cell-based; details: PC-3M, 96 h
[2] = Cytotoxicity against human OVXF 899L cells after 4 days by propidium iodide staining-based fluorometric analysis; assay type: functional, cell-based; details: 96 h
[3] = Cytotoxicity against human PXF 698L cells after 4 days by propidium iodide staining-based fluorometric analysis; assay type: functional, cell-based; details: 96 h
[4] = Cytotoxicity against human MEXF 462NL cells after 4 days by propidium iodide staining-based fluorometric analysis; assay type: functional, cell-based; details: 96 h
[5] = Cytotoxicity against human PXF 1752L cells after 4 days by propidium iodide staining-based fluorometric analysis; assay type: functional, cell-based; details: 96 h
[6] = tested on: SAOS-2; assay: Cytotoxicity against human Saos2 cells after 4 days by propidium iodide staining-based fluorometric analysis; assay type: functional, cell-based; details: SAOS-2, 96 h
[7] = tested on: HCT-116; assay: Cytotoxicity against human HCT116 cells after 4 days by propidium iodide staining-based fluorometric analysis; assay type: functional, cell-based; details: HCT-116, 96 h
[8] = Cytotoxicity against human RXF 486L cells after 4 days by propidium iodide staining-based fluorometric analysis; assay type: functional, cell-based; details: 96 h
[9] = Cytotoxicity against human LXFL 1121L cells after 4 days by propidium iodide staining-based fluorometric analysis; assay type: functional, cell-based; details: 96 h
[10] = Cytotoxicity against human BXF 1218L cells after 4 days by propidium iodide staining-based fluorometric analysis; assay type: functional, cell-based; details: 96 h
[11] = Cytotoxicity against human LIXF 575L cells after 4 days by propidium iodide staining-based fluorometric analysis; assay type: functional, cell-based; details: 96 h
[12] = Cytotoxicity against human RXF 1781L cells after 4 days by propidium iodide staining-based fluorometric analysis; assay type: functional, cell-based; details: 96 h
[13] = Cytotoxicity against human LXFL 529L cells after 4 days by propidium iodide staining-based fluorometric analysis; assay type: functional, cell-based; details: 96 h
[14] = Cytotoxicity against human PAXF 546L cells after 4 days by propidium iodide staining-based fluorometric analysis; assay type: functional, cell-based; details: 96 h
[15] = tested on: MCF7; assay: Cytotoxicity against human MCF7 cells after 4 days by propidium iodide staining-based fluorometric analysis; assay type: functional, cell-based; details: MCF7, 96 h
[16] = tested on: CWR22R; assay: Cytotoxicity against human 22Rv1 cells after 4 days by propidium iodide staining-based fluorometric analysis; assay type: functional, cell-based; details: 22Rv1, 96 h
[17] = Cytotoxicity against human CXF 269L cells after 4 days by propidium iodide staining-based fluorometric analysis; assay type: functional, cell-based; details: 96 h
[18] = tested on: OVCAR-3; assay: Cytotoxicity against human OVCAR3 cells after 4 days by propidium iodide staining-based fluorometric analysis; assay type: functional, cell-based; details: OVCAR-3, 96 h
[19] = Cytotoxicity against human RXF 393NL cells after 4 days by propidium iodide staining-based fluorometric analysis; assay type: functional, cell-based; details: 96 h
[20] = Cytotoxicity against human BXF 1352L cells after 4 days by propidium iodide staining-based fluorometric analysis; assay type: functional, cell-based; details: 96 h
[21] = tested on: LNCaP; assay: Cytotoxicity against human LNCAP cells after 4 days by propidium iodide staining-based fluorometric analysis; assay type: functional, cell-based; details: 96 h
[22] = Cytotoxicity against human LXFA 289L cells after 4 days by propidium iodide staining-based fluorometric analysis; assay type: functional, cell-based; details: 96 h
[23] = target: Hepatocyte growth factor receptor (Homo sapiens) (UniProt P08581); assay: Inhibition of MET using poly(Ala, Glu, Lys, Tyr) as substrate and [gamma33P]ATP at 1 uM after 60 mins by scintillation counting
[24] = Cytotoxicity against human BXF T24 cells after 4 days by propidium iodide staining-based fluorometric analysis; assay type: functional, cell-based; details: T-24, 96 h
[25] = Cytotoxicity against human MDA231 cells after 4 days by propidium iodide staining-based fluorometric analysis; assay type: functional, cell-based; details: MDA-MB-231, 96 h
[26] = Cytotoxicity against human MEXF 276L cells after 4 days by propidium iodide staining-based fluorometric analysis; assay type: functional, cell-based; details: MEXF276L, 96 h
[27] = Cytotoxicity against human MAXF 401NL cells after 4 days by propidium iodide staining-based fluorometric analysis; assay type: functional, cell-based; details: 96 h
[28] = tested on: MKN-45; assay: Cytotoxicity against human MKN45 cells after 4 days by propidium iodide staining-based fluorometric analysis; assay type: functional, cell-based; details: MKN-45, 96 h
[29] = tested on: TE-671; assay: Cytotoxicity against human TE671 cells after 4 days by propidium iodide staining-based fluorometric analysis; assay type: functional, cell-based; details: TE-671, 96 h
[30] = Cytotoxicity against human UXF 1138L cells after 4 days by propidium iodide staining-based fluorometric analysis; assay type: functional, cell-based; details: 96 h
[31] = Cytotoxicity against human PXF 1118L cells after 4 days by propidium iodide staining-based fluorometric analysis; assay type: functional, cell-based; details: 96 h
[32] = tested on: CAL-27; assay: Cytotoxicity against human CAL27 cells after 4 days by propidium iodide staining-based fluorometric analysis; assay type: functional, cell-based; details: CAL-27, 96 h
[33] = Cytotoxicity against human LXFA 526L cells after 4 days by propidium iodide staining-based fluorometric analysis; assay type: functional, cell-based; details: 96 h
[34] = tested on: RKO; assay: Cytotoxicity against human RKO cells after 4 days by propidium iodide staining-based fluorometric analysis; assay type: functional, cell-based; details: 96 h
[35] = target: Tyrosine-protein kinase ABL1 (Homo sapiens) (UniProt P00519); assay: Inhibition of ABL1 using poly(Ala, Glu, Lys, Tyr) as substrate and [gamma33P]ATP at 1 uM after 60 mins by scintillation counting
[36] = tested on: HT-29; assay: Cytotoxicity against human HT-29 cells after 4 days by propidium iodide staining-based fluorometric analysis; assay type: functional, cell-based; details: HT-29, 96 h
[37] = Cytotoxicity against human DIFI cells after 4 days by propidium iodide staining-based fluorometric analysis; assay type: functional, cell-based; details: 96 h
[38] = Cytotoxicity against human MEXF 1341L cells after 4 days by propidium iodide staining-based fluorometric analysis; assay type: functional, cell-based; details: 96 h
[39] = Cytotoxicity against human PAXF 1657L cells after 4 days by propidium iodide staining-based fluorometric analysis; assay type: functional, cell-based; details: 96 h
[40] = Cytotoxicity against human LXFA 629L cells after 4 days by propidium iodide staining-based fluorometric analysis; assay type: functional, cell-based; details: 96 h
[41] = tested on: NCI-H460; assay: Cytotoxicity against human H460 cells after 4 days by propidium iodide staining-based fluorometric analysis; assay type: functional, cell-based; details: NCI-H460, 96 h
[42] = tested on: PANC-1; assay: Cytotoxicity against human PANC1 cells after 4 days by propidium iodide staining-based fluorometric analysis; assay type: functional, cell-based; details: PANC-1, 96 h
[43] = Cytotoxicity against human GXF251L cells after 4 days by propidium iodide staining-based fluorometric analysis; assay type: functional, cell-based; details: GXF 251L, 96 h
[44] = tested on: DU-145; assay: Cytotoxicity against human DU145 cells after 4 days by propidium iodide staining-based fluorometric analysis; assay type: functional, cell-based; details: DU-145, 96 h
[45] = target: T1, Epidermal growth factor receptor (Homo sapiens, UniProt P00533); assay: Inhibition of EGFR using poly(Glu,Tyr)4:1 as substrate and [gamma33P]ATP after 60 mins by scintillation counting
[46] = target: Receptor tyrosine-protein kinase erbB-2 (Homo sapiens) (UniProt P04626); assay: Inhibition of Erbb2 using poly(Glu,Tyr)4:1 as substrate and [gamma33P]ATP at 1 uM after 60 mins by scintillation counting
[47] = target: T1, Epidermal growth factor receptor; assay: Inhibition of EGFR using poly(Glu,Tyr)4:1 as substrate and [gamma33P]ATP at 1 uM after 60 mins by scintillation counting
[48] = target: Vascular endothelial growth factor receptor 2 (Homo sapiens) (UniProt P35968); assay: Inhibition of VEGFR2 using poly(Glu,Tyr)4:1 as substrate and [gamma33P]ATP at 1 uM after 60 mins by scintillation counting

Tyrosine-protein kinase ABL1 (Homo sapiens), sequence (P00519 whole entry): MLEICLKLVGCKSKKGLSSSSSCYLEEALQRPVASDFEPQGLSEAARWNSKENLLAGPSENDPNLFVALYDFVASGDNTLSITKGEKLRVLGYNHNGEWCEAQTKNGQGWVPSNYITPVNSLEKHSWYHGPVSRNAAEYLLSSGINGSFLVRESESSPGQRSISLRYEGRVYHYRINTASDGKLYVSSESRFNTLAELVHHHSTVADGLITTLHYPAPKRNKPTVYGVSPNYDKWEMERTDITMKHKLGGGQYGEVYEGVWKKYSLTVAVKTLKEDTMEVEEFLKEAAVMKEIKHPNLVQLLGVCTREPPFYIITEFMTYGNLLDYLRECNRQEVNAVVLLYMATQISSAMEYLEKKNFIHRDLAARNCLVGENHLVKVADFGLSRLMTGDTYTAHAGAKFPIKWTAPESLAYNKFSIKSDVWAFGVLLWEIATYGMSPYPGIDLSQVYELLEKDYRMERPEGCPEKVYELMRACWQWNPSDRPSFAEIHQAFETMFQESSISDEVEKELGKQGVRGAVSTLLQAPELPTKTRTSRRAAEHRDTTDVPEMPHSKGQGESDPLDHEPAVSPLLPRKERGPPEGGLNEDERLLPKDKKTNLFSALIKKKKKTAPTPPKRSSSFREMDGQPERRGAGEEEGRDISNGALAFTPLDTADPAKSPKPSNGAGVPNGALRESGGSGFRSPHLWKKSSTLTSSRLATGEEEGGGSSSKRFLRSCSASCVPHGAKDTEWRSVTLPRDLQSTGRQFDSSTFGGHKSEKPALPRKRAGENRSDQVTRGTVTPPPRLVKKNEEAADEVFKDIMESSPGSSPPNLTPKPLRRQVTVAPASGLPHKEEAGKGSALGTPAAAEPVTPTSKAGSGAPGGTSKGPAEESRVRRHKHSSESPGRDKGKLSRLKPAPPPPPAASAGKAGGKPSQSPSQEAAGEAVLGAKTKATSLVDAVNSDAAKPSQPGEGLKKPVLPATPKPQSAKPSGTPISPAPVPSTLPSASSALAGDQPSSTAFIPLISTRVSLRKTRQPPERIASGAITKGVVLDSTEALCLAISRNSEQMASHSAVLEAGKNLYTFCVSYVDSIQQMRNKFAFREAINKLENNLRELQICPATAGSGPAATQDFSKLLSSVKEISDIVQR
Hepatocyte growth factor receptor (Homo sapiens), sequence (P08581 whole entry): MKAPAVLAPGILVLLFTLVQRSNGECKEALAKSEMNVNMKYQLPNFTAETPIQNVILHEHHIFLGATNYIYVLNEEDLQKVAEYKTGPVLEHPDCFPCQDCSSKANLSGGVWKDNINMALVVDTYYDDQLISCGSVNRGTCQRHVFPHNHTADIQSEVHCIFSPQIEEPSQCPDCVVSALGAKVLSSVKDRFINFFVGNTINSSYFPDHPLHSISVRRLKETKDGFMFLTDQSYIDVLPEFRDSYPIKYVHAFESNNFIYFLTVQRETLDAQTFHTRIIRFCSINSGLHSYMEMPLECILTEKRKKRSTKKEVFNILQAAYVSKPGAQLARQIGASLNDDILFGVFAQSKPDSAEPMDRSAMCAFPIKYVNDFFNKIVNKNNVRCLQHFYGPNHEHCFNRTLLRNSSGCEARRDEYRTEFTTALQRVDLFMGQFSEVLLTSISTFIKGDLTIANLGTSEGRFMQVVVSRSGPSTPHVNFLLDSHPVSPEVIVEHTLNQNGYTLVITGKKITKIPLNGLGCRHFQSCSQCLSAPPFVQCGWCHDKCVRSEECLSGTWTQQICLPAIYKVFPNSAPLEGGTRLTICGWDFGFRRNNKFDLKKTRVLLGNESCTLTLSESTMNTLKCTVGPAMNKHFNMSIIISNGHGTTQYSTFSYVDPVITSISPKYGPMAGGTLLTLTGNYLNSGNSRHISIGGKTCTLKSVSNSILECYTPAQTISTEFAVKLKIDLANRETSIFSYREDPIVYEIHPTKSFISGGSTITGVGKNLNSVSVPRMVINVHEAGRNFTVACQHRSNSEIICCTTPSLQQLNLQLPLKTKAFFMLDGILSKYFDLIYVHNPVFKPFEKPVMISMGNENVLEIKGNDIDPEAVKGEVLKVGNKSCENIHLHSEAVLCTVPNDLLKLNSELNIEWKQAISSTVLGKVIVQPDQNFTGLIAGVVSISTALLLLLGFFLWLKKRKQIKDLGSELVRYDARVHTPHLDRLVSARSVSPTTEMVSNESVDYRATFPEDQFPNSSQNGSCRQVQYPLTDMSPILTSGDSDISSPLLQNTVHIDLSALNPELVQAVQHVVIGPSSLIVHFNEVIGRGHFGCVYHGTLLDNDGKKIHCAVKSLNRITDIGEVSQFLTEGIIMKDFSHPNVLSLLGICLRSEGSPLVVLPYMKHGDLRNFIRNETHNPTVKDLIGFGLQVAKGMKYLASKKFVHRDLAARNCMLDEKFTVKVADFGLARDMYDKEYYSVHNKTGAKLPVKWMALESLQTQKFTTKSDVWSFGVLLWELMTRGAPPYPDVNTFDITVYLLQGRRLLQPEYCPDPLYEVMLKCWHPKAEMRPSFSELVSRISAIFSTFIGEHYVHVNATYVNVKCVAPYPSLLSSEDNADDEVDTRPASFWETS
T1 sequence (P00533 whole entry): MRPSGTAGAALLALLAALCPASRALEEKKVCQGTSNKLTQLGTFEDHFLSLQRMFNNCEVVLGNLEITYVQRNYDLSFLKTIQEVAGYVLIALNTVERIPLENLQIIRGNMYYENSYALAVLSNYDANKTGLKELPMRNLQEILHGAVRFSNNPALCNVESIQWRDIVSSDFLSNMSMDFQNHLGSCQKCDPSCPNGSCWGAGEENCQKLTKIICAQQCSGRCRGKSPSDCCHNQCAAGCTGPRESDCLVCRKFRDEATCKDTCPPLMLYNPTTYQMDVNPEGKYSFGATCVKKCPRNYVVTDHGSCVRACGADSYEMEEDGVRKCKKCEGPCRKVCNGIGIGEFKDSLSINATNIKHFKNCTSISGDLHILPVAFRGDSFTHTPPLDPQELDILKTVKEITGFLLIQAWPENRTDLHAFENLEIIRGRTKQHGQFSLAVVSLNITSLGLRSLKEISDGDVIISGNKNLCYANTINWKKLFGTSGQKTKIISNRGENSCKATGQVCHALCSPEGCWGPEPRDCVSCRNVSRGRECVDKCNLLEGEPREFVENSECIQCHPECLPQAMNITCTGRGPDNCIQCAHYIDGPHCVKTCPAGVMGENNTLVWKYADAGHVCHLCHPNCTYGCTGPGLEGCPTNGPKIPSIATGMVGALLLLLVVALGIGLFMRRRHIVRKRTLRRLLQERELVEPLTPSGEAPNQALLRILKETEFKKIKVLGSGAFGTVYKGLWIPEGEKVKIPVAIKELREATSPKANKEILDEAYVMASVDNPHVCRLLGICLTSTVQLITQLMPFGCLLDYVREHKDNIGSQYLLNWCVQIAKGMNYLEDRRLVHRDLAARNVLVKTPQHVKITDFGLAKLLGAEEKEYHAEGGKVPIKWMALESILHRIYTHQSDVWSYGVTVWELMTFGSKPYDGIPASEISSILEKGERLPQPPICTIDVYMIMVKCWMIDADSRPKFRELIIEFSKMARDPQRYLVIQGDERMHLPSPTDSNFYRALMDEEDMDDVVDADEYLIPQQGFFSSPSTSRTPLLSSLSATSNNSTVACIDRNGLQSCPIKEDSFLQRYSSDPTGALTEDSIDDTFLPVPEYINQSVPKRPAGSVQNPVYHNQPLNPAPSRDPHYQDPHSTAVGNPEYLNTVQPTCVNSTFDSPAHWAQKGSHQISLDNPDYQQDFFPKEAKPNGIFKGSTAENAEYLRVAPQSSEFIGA
Receptor tyrosine-protein kinase erbB-2 (Homo sapiens), sequence (P04626 whole entry): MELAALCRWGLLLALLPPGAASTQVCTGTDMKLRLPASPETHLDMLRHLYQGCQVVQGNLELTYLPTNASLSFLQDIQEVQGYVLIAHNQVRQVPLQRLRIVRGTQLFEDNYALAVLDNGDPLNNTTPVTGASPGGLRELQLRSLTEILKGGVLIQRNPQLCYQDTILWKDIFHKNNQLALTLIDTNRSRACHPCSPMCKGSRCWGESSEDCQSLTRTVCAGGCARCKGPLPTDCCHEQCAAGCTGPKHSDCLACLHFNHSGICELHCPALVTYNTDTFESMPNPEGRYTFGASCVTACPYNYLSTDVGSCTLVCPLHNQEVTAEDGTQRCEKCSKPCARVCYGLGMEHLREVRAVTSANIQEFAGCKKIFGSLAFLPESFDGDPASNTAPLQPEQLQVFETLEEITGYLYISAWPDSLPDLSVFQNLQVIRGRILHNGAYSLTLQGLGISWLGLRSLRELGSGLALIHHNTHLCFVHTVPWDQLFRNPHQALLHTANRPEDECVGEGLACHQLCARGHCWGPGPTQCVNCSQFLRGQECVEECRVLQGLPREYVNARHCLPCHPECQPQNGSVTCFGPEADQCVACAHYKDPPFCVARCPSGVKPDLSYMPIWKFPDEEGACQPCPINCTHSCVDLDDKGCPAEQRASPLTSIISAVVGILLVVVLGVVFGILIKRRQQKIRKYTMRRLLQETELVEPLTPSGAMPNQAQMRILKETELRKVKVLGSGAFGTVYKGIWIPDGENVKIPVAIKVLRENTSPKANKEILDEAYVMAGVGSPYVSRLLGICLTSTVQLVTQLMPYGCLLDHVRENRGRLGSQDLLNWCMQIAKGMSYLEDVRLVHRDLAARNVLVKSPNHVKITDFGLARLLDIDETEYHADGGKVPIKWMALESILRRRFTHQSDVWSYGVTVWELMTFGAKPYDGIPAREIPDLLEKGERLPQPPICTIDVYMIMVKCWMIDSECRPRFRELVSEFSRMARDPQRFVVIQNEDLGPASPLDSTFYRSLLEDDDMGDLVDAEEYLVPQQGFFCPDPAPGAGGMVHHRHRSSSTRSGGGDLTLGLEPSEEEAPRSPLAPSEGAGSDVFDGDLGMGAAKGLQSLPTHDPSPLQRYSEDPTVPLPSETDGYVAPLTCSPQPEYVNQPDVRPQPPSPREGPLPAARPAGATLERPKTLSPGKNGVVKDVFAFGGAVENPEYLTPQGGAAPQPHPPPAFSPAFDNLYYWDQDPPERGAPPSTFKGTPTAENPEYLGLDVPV

inhibition [23]: inactive | inhibition [35]: inactive
Structure (SMILES): CS(=O)(=O)CCNCc1ccc(-c2ccc3ncnc(Nc4ccc(OCc5cccc(F)c5)c(Cl)c4)c3c2)o1 [LAPATINIB]
IC50 [1]: 4.55 µM | IC50 [2]: 3.35 µM | IC50 [3]: 9.49 µM | IC50 [4]: 10.1 µM | IC50 [5]: 9.46 µM | IC50 ([6]; read-out: IC50): 9.38 µM | IC50 [7]: 13.1 µM | IC50 [8]: 9.1 µM | IC50 [9]: 7.73 µM | IC50 [10]: 11.8 µM | IC50 [11]: 7.18 µM | IC50 [12]: 7.67 µM | IC50 [13]: 3.51 µM | IC50 [14]: 6.12 µM | IC50 [15]: 4.83 µM | IC50 [16]: 6.06 µM | IC50 [17]: 8.36 µM | IC50 [18]: 13.4 µM | IC50 [19]: 7.77 µM | IC50 [20]: 11.5 µM | IC50 [21]: 3.68 µM | IC50 [22]: 5.79 µM | IC50 [24]: 9.65 µM | IC50 [25]: 7.7 µM | IC50 [26]: 11.4 µM | IC50 [27]: 5.8 µM | IC50 [28]: 11.5 µM | IC50 [29]: 11 µM | IC50 [30]: 4.4 µM | IC50 [31]: 6.86 µM | IC50 [32]: 0.53 µM | IC50 [33]: 4.21 µM | IC50 [34]: 5.35 µM | IC50 [36]: 4.62 µM | IC50 [37]: 0.235 µM | IC50 [38]: 4.85 µM | IC50 [39]: 11.1 µM | IC50 [40]: 2.87 µM | IC50 [41]: 13.5 µM | IC50 [42]: 8.12 µM | IC50 [43]: 1.48 µM | IC50 [44]: 2.99 µM

inhibition [23]: inactive | IC50 [45]: 0.00554 µM | inhibition [46]: 80% | inhibition [47]: 100% | inhibition [35]: inactive | inhibition [48]: 15%
Structure (SMILES): O=C(c1cc2ccccc2[nH]1)c1cc2c(Nc3ccc(F)c(Cl)c3)ncnc2s1
IC50 [1]: 5.77 µM | IC50 [2]: 5.56 µM | IC50 [3]: 14.3 µM | IC50 [4]: 8.11 µM | IC50 [5]: 13.5 µM | IC50 ([6]; read-out: IC50): 11.4 µM | IC50 [7]: 8.39 µM | IC50 [8]: 5.5 µM | IC50 [9]: 9.77 µM | IC50 [10]: 9.13 µM | IC50 [11]: 8.15 µM | IC50 [12]: 9.05 µM | IC50 [13]: 8.61 µM | IC50 [14]: 11.6 µM | IC50 [15]: 6.96 µM | IC50 [16]: 5.48 µM | IC50 [17]: 10.8 µM | IC50 [18]: 8.45 µM | IC50 [19]: 11.8 µM | IC50 [20]: 11.3 µM | IC50 [21]: 6.11 µM | IC50 [22]: 6.68 µM | IC50 [24]: 11.4 µM | IC50 [25]: 8.04 µM | IC50 [26]: 10.2 µM | IC50 [27]: 3.89 µM | IC50 [28]: 12.5 µM | IC50 [29]: 14.1 µM | IC50 [30]: 4.42 µM | IC50 [31]: 17.9 µM | IC50 [32]: 2.61 µM | IC50 [33]: 10.7 µM | IC50 [34]: 7.29 µM | IC50 [36]: 7.83 µM | IC50 [37]: 1.39 µM | IC50 [38]: 10.8 µM | IC50 [39]: 17.6 µM | IC50 [40]: 4.88 µM | IC50 [41]: 5.82 µM | IC50 [42]: 7.01 µM | IC50 [43]: 2.76 µM | IC50 [44]: 4.36 µM

inhibition [23]: inactive | inhibition [35]: inactive
Structure (SMILES): C#Cc1cccc(Nc2ncnc3cc(OCCOC)c(OCCOC)cc23)c1 [ERLOTINIB]
IC50 [1]: 17.2 µM | IC50 [2]: 8.77 µM | IC50 [3]: 36.4 µM | IC50 [4]: 100 µM | IC50 [5]: 31.6 µM | IC50 [6]: 21 µM | IC50 [7]: 65.8 µM | IC50 [8]: 10 µM | IC50 [9]: 34.6 µM | IC50 [10]: 96 µM | IC50 [11]: 47.2 µM | IC50 [12]: 76.7 µM | IC50 [13]: 17.4 µM | IC50 [14]: 10 µM | IC50 [15]: 100 µM | IC50 [16]: 100 µM | IC50 [17]: 16 µM | IC50 [18]: 100 µM | IC50 [19]: 45.6 µM | IC50 [20]: 87.8 µM | IC50 [21]: 6.63 µM | IC50 [22]: 1.78 µM | IC50 [24]: 13.9 µM | IC50 [25]: 34.5 µM | IC50 [26]: 18.6 µM | IC50 [27]: 25 µM | IC50 [28]: 76.7 µM | IC50 [29]: 100 µM | IC50 [30]: 24.5 µM | IC50 [31]: 76.7 µM | IC50 [32]: 0.239 µM | IC50 [33]: 100 µM | IC50 [34]: 100 µM | IC50 [36]: 100 µM | IC50 [37]: 0.14 µM | IC50 [38]: 30.1 µM | IC50 [39]: 64.3 µM | IC50 [40]: 0.66 µM | IC50 [41]: 74.3 µM | IC50 [42]: 75.8 µM | IC50 [43]: 0.369 µM | IC50 [44]: 0.966 µM
